# Like-named read-outs stand apart in the source and are kept apart here.
# How the values were obtained:
# hCB2 = hCB2 (Homo sapiens, UniProt P34972); test: In vitro binding assay using hCB2-CHO membranes, [3H]-CP-55,940 displacement (Protocol IV); set-up: expressed in transfected cells; host or cells: CHO (hCB2-CHO, generated in-house); conditions: 1 h, read-out: % Displacement Protocol IV
# How it was run: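 Displacement of [3H]-CP-55,940 (0.75 nM) from membranes of CHO cells expressing human CB2 (25-50 μg) was measured in Tris-BSA buffer pH 7.4 with 5 mM MgCl2, 1 mM EDTA, 0.1% BSA, 1 h at 30 °C. Test compounds were at 300 nM final; nonspecific binding defined with 0.5 μM CP-55,940. Values are % displacement of specific binding.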
# CB1 = CB1 (Rattus norvegicus, UniProt P20272); test: Rat CB1 receptor binding using brain membrane, [3H]SR141716A displacement (Protocol I); set-up: CB1 receptor present in a rat brain membrane preparation; from tissue; host or cells: rat brain membrane; inhibition: dose or concentration left out as unconfirmed; conditions: 1 h
# Procedure: I. In Vitro Protocol for Rat CB1 Receptor Binding Using Brain Membrane
# In this assay, [^3H]SR141716A (5-(4-chlorophenyl)-1-(2,4-dichlorophenyl)-4-methyl-N-(1-piperidyl)pyrazole-3-carboxamide) was used to bind the CB1 receptor present in a rat brain membrane preparation which can be displaced by unlabeled ligands having affinity to the CB1 receptor.
# The assay was performed according to the modified method of Thomas et al., 1998 (JPET 285: 285-292). The total reaction mixture ([…]) contained Tris-BSA buffer (50 mM Tris, pH 7.4 with 1.5% BSA) or unlabeled SR141716A […] or test samples […], [^3H] SR141716A (2 nM) and […] of rat brain membrane. The non-specific binding was defined by […] of SR141716A. The assay mixture was incubated at 37° C. for 1 hour. The reaction was then stopped by rapid filtration under vacuum using Whatman GF/B-96 micro filter plate. A scintillation cocktail was added and radioactive counts were measured using a Topcount beta scintillation counter.
# The standard and test sample dilutions were made in an assay buffer containing either ethanol or DMSO at a final concentration of 1%.
# The percent (%) displacement by a test ligand was calculated by comparing the specific bound values.
# [1] = hCB2-CHO membranes, [3H]-CP-55,940 displacement
# [2] = rat brain membrane, [3H]SR141716A displacement, read-out: % Displacement Protocol I
# Chain of CB1 (P20272 whole entry): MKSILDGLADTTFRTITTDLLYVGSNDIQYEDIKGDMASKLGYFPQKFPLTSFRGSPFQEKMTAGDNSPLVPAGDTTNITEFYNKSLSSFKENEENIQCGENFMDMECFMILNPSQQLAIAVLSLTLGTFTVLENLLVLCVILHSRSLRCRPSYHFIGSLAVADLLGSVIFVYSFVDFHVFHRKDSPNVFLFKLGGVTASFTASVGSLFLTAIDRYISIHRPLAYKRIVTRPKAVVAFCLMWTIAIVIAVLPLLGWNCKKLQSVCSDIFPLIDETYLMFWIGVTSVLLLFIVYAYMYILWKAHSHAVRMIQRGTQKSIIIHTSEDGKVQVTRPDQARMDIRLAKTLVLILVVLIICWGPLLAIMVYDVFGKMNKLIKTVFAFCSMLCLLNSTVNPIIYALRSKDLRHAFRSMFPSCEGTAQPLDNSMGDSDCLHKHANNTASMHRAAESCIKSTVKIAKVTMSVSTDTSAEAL
# Chain of hCB2 (P34972 whole entry): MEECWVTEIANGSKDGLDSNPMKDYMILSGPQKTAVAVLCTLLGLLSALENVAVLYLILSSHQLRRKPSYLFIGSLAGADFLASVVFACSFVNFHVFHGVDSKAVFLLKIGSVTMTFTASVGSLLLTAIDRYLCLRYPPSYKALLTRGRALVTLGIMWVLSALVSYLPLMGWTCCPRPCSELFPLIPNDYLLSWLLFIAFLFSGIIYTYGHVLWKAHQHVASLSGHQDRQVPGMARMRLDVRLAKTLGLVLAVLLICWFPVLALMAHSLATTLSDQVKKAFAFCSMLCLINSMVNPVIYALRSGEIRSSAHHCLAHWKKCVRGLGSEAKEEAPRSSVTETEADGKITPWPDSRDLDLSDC
Compound,melting point [°C],inhibition at 0.3 µM (hCB2; [1]) [%],inhibition (CB1; [2]) [%],inhibition at 0.3 µM (hCB2) [%],"inhibition (CB1; read-out: % Displacement Protocol I, rat brain membrane, [3H]SR141716A displacement) [%]"
"O=C(NNc1ccc(Cl)cc1Cl)c1nn(-c2ccccc2)c2c1C1CC3CC(C1)CC2C3 [Example 167, N(7)-[(2,4-Dichlorophenyl)amino]-5-phenyl-5,6-diazatetracyclo[7.3.1.1^3,11.0^4,8]tetradeca-4(8),6-diene-7-carboxamide]",166 to 170,24.6,61.3,,
"O=C(NNc1ccccc1)c1nn(-c2ccccc2Br)c2c1C1CCC2C1 (stereo not drawn) [Example 273, N(3)-Phenylamino-1-(2-bromophenyl)-4,5,6,7-tetrahydro-1H-4,7-methano-indazole-3-carboxamide]",219,26.2,-5.9,,
"O=C(NCC1CCCCC1)c1nn(-c2ccc(Cl)cc2)c2c1C1CC3CC(C1)CC2C3 [Example 108, N(7)-Cyclohexylmethyl-5-(4-chlorophenyl)-5,6-diazatetracyclo[7.3.1.1^3,11.0^4,8]tetradeca-4(8),6-diene-7-carboxamide]",117,37.1,82.5,,
"O=C(Nc1ccccc1)c1nn(-c2ccc(Cl)cc2)c2c1C1CCC2C1 (stereo not drawn) [Example 214, N(3)-Phenyl-1-(4-chlorophenyl)-4,5,6,7-tetrahydro-1H-4,7-methano-indazole-3-carboxamide]",137 to 140,41.3,10.1,,
"O=C(NCc1ccccc1)c1nn(-c2ccc(Br)cc2)c2c1C1CCC2C1 (stereo not drawn) [Example 276, N(3)-Benzyl-1-(4-bromophenyl)-4,5,6,7-tetrahydro-1H-4,7-methano-indazole-3-carboxamide]",89,14.1,25.3,,
"O=C(NN1CCCCC1)c1nn(-c2ccc(Cl)cc2)c2c1C1CCC2C1 (stereo not drawn) [Example 209, N(3)-Piperidino-1-(4-chlorophenyl)-4,5,6,7-tetrahydro-1H-4,7-methano-indazole-3-carboxamide]",78 to 81,50.5,23.5,,
"O=C(NCc1ccc(Cl)cc1)c1nn(-c2ccc(Cl)cc2Cl)c2c1C1CCC2C1 (stereo not drawn) [Example 250, N(3)-(4-Chlorobenzyl)-1-(2,4-dichlorophenyl)-4,5,6,7-tetrahydro-1H-4,7-methano-indazole-3-carboxamide]",139 to 142,27.9,27.1,,
"O=C(NN(c1ccc(Cl)cc1Cl)C1CCCCC1)c1nn(-c2ccc(Cl)cc2)c2c1C1CC3CC(C1)CC2C3 [Example 129, N(7)-(2,4-Dichlorophenyl-N′-cyclohexylamino)-5-(4-chlorophenyl)-5,6-diazatetracyclo[7.3.1.1^3,11.0^4,8]tetradeca-4(8),6-diene-7-carboxamide]",95 to 96,62.9,65.2,,
"O=C(NNc1ccccc1)c1nn(-c2ccc(F)cc2)c2c1C1CCC2C1 (stereo not drawn) [Example 284, N(3)-Phenylamino-1-(4-fluorophenyl)-4,5,6,7-tetrahydro-1H-4,7-methano-indazole-3-carboxamide]",163,0.9,13.7,,
"O=C(NCc1ccccc1)c1nn(-c2ccccc2Br)c2c1C1CCC2C1 (stereo not drawn) [Example 272, N(3)-Benzyl-1-(2-bromophenyl)-4,5,6,7-tetrahydro-1H-4,7-methano-indazole-3-carboxamide]",110,18.4,-4.5,,
"O=C(NN1CCCCC1)c1nn(-c2ccc(Br)cc2)c2c1C1CCC2C1 (stereo not drawn) [Example 274, N(3)-Piperidino-1-(4-bromophenyl)-4,5,6,7-tetrahydro-1H-4,7-methano-indazole-3-carboxamide]",173,35.4,25.7,,
"O=C(NNc1ccccc1F)c1nn(-c2ccc(Cl)cc2)c2c1C1CCC2C1 (stereo not drawn) [Example 232, N(3)-[(2-Fluorophenyl)amino]-1-(4-chlorophenyl)-4,5,6,7-tetrahydro-1H-4,7-methano-indazole-3-carboxamide]",91,13.8,49.7,,
"O=C(NNc1ccc(Cl)cc1)c1nn(-c2ccc(Cl)cc2Cl)c2c1C1CCC2C1 (stereo not drawn) [Example 259, N(3)-[(4-Chlorophenyl)amino]-1-(2,4-dichlorophenyl)-4,5,6,7-tetrahydro-1H-4,7-methano-indazole-3-carboxamide]",141 to 144,33.3,18.3,,
"COc1ccc(-n2nc(C(=O)NCc3ccccc3Cl)c3c2C2CC4CC(CC3C4)C2)cc1 [Example 164, N7-(2-Chlorobenzyl)-5-(4-methoxyphenyl)-5,6-diazatetracyclo[7.3.1.1^3,11.0^4,8]tetradeca-4(8),6-diene-7-carboxamide]",178,13.2,8.2,,
"O=C(NNc1ccccc1)c1nn(-c2ccccc2Cl)c2c1C1CCC2C1 (stereo not drawn) [Example 208, N(3)-Phenylamino-1-(2-chlorophenyl)-4,5,6,7-tetrahydro-1H-4,7-methano-indazole-3-carboxamide]",205,0,-1.2,,
"O=C(NNc1ccccc1)c1nn(-c2ccc(Cl)cc2)c2c1C1CCC2C1 (stereo not drawn) [Example 228, N(3)-Phenylamino-1-(4-chlorophenyl)-4,5,6,7-tetrahydro-1H-4,7-methano-indazole-3-carboxamide]",138 to 141,9.4,16.1,,
"O=C(NN1CCCCC1)c1nn(-c2ccccc2)c2c1C1CCC2C1 (stereo not drawn) [Example 201, N(3)-Piperidino-1-phenyl-4,5,6,7-tetrahydro-1H-4,7-methano-indazole-3-carboxamide]",144,19.8,9,,
"O=C(NN1CCCCC1)c1nn(-c2ccccc2Br)c2c1C1CCC2C1 (stereo not drawn) [Example 270, N(3)-Piperidino-1-(2-bromophenyl)-4,5,6,7-tetrahydro-1H-4,7-methano-indazole-3-carboxamide]",236,8.62,-14.6,,
"O=C(NCc1ccc(Cl)cc1)c1nn(-c2ccc(Cl)cc2)c2c1C1CCC2C1 (stereo not drawn) [Example 222, N(3)-(4-Chlorobenzyl)-1-(4-chlorophenyl)-4,5,6,7-tetrahydro-1H-4,7-methano-indazole-3-carboxamide]",157 to 160,15.7,39.4,,
"O=C(NCc1ccccc1)c1nn(-c2ccc(Cl)cc2)c2c1C1CCC2C1 (stereo not drawn) [Example 220, N(3)-Benzyl-1-(4-chlorophenyl)-4,5,6,7-tetrahydro-1H-4,7-methano-indazole-3-carboxamide]",112 to 115,25.3,29.5,,
"O=C(Nc1ccc(Cl)cc1)c1nn(-c2ccc(Cl)cc2)c2c1C1CCC2C1 (stereo not drawn) [Example 216, N(3)-(4-Chlorophenyl)-1-(4-chlorophenyl)-4,5,6,7-tetrahydro-1H-4,7-methano-indazole-3-carboxamide]",182 to 184,20.7,32.2,,
"O=C(NNc1ccccc1)c1nn(-c2ccc(Br)cc2)c2c1C1CCC2C1 (stereo not drawn) [Example 277, N(3)-Phenylamino-1-(4-bromophenyl)-4,5,6,7-tetrahydro-1H-4,7-methano-indazole-3-carboxamide]",138,22.1,-12.8,,
"O=C(NC1CCCCC1)c1nn(-c2ccccc2Br)c2c1C1CCC2C1 (stereo not drawn) [Example 271, N(3)-Cyclohexyl-1-(2-bromophenyl)-4,5,6,7-tetrahydro-1H-4,7-methano-indazole-3-carboxamide]",178,,,46,11.7
"Cc1ccc(-n2nc(C(=O)NN3CCCCC3)c3c2C2CC4CC(CC3C4)C2)cc1 [Example 160, N(7)-Piperidino-5-(4-methylphenyl)-5,6-diazatetracyclo[7.3.1.1^3,11.0^4,8]tetradeca-4(8),6-diene-7-carboxamide]",228 to 232,20.8,10,,

# Source: US7923465B2, “Cannabinoid receptor ligands, pharmaceutical compositions containing them, and process for their preparation” (priority 2005, dated 2011)
